In assay [1] the test system is Escherichia coli. As to the kind of experiment: Antibacterial activity against Escherichia coli assessed as bacterial growth inhibition at 50 uM measured after 24 hrs by 96-wellplate reader assay method. In kind it is functional.
In assay [2] the test system is Acinetobacter baumannii. Description: Antibacterial activity against Acinetobacter baumannii W41979. In kind it is functional.
Assay [3] relates to Escherichia coli. Description: Antibacterial activity against Escherichia coli BAA 2340 assessed as reduction in microbial growth inhibition. Type of assay: functional.
The test system of assay [4] is Klebsiella pneumoniae. Description: Antibacterial activity against Klebsiella pneumoniae BAA-1705. In kind it is functional.
Assay [5] relates to Staphylococcus aureus. Description: Antibacterial activity against Staphylococcus aureus ATCC 29213 assessed as bacterial growth inhibition incubated for 24 hrs by broth dilution method. In kind it is functional. (In general: Broth dilution looks for growth in wells or tubes with falling amounts of substance.)
Assay [6] has as its target T1, Enoyl-[acyl-carrier-protein] reductase [NADH] FabI (Escherichia coli K-12, UniProt P0AEK4).
T1 sequence (P0AEK4 whole entry): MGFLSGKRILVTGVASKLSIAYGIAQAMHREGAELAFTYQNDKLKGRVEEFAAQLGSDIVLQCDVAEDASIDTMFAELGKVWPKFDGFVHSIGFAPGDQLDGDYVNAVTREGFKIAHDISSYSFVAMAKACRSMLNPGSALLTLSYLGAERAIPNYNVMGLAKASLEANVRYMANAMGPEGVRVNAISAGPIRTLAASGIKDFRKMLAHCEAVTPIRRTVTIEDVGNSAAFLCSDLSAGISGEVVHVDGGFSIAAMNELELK
Description: Inhibition of Escherichia coli FabI in the presence of NADH using crotonyl CoA as substrate by measuring NADH consumption rate.

Assay [7] has as its target T2, Enoyl-[acyl-carrier-protein] reductase [NADPH] FabI (Staphylococcus aureus, UniProt Q6GI75).
T2 sequence (Q6GI75 whole entry): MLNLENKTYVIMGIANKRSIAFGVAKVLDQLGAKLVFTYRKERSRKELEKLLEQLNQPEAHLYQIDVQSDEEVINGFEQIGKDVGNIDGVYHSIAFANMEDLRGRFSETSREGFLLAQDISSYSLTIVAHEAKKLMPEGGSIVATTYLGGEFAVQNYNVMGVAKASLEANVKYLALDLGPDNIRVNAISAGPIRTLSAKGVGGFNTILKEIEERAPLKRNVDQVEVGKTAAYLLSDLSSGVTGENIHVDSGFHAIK
As to the kind of experiment: Inhibition of Staphylococcus aureus FabI in the presence of NADH using crotonyl CoA as substrate by measuring NADH consumption rate.

Assay [8] has as its system Escherichia coli. As to the kind of experiment: Antibacterial activity against Escherichia coli ATCC 8730 assessed as inhibition of bacterial growth. Type of assay: functional.
Assay [9] relates to Vibrio cholerae. Description: Antibacterial activity against Vibrio cholerae. In kind it is functional.
Assay [10] relates to Bacillus subtilis. Description: Antibacterial activity against Bacillus subtilis ATCC 60511 assessed as reduction in bacterial growth at 25 ug/ml measured after 24 hrs serial dilution method. In kind it is functional. The conditions noted are these: dose 25 µg/ml.
For assay [11], the system named is Staphylococcus aureus. As to the kind of experiment: Antibacterial activity against Staphylococcus aureus ATCC 11632 assessed as reduction in bacterial growth at 25 ug/ml measured after 24 hrs serial dilution method. In kind it is functional. To be noted: dose 25 µg/ml.
Assay [12] has as its system Staphylococcus aureus. Description: Antibacterial activity against Methicillin-resistant Staphylococcus aureus ATCC 33592 assessed as bacterial growth inhibition measured after 24 hrs by broth dilution method. Type of assay: functional.
Assay [13] is described as follows: Inhibition of Francisella tularensis FabI by addition of crotonyl-CoA as substrate preincubated for 10 mins followed by substrate addition in presence of NAD by spectrophotometer.
In assay [14] the test system is Mycobacterium tuberculosis. As to the kind of experiment: Antimycobacterial activity against Mycobacterium tuberculosis H37Rv after 14 days. In kind it is functional. To be noted: 336 h, time 14 day.
Assay [15] deals with Staphylococcus aureus. Description: Antibacterial activity against Methicillin-sensitive Staphylococcus aureus ATCC 4330 assessed as reduction in bacterial growth. Type of assay: functional.
For assay [16], the system named is Staphylococcus aureus. Description: Antibacterial activity against methicillin-resistant Staphylococcus aureus ATCC 4330 assessed as reduction in bacterial growth. Type of assay: functional.
Assay [17] relates to Staphylococcus aureus. Description: Antibacterial activity against Staphylococcus aureus assessed as inhibition of bacterial growth measured after 24 hrs. In kind it is functional.
Assay [18] concerns the target T2, Enoyl-[acyl-carrier-protein] reductase [NADPH] FabI. Description: Inhibition of Staphylococcus aureus ATCC 29213 FabI in the presence of NADH using crotonyl CoA as substrate by measuring NADH consumption rate.
Assay [19] concerns Mycobacterium tuberculosis. As to the kind of experiment: Antimycobacterial activity against Mycobacterium tuberculosis H37Rv. Type of assay: functional.
The subject of assay [20] is Staphylococcus aureus. Description: Antibacterial activity against Methicillin-resistant Staphylococcus aureus N315 assessed as reduction in bacterial growth. In kind it is functional.
Assay [21] concerns the target T1, Enoyl-[acyl-carrier-protein] reductase [NADH] FabI. Description: Inhibition of Escherichia coli DH5alpha FabI in the presence of NADH using crotonyl CoA as substrate by measuring NADH consumption rate.
For assay [22], the system named is Moraxella catarrhalis. Description: Antibacterial activity against Moraxella catarrhalis assessed as inhibition in bacterial growth measured after 24 hrs by broth microdilution method. In kind it is functional.
Assay [23] deals with Staphylococcus aureus. As to the kind of experiment: Antibacterial activity against quinolone-resistant Staphylococcus aureus. In kind it is functional.
Assay [24] is described as follows: Inhibition of Pseudomonas fluorescens FabG assessed as inhibition.
A short description of assay [25]: Inhibition of Pseudomonas fluorescens FabI assessed as inhibition.

Values after ≈ are worked out from the molar mass of the structure shown.

The term MIC denotes the least concentration at which growth counts as inhibited. `Cc1ccc(Oc2ccccc2)c(O)c1`: in [1], the MIC turned out to be 1 mg/L (≈ 4.99 µM). Turning to `Cc1c(CN(C)C(=O)/C=C/c2cnc3c(c2)CC(N)C(=O)N3)oc2ccccc12.Cl` (stereo not given), the minimal inhibitory concentration (MIC) turned out to be 4 mg/L in assay [2], 4 mg/L in assay [3], 8 mg/L in assay [4] and 0.031 mg/L in [5].

By IC50 is commonly meant the concentration that inhibits the measured activity by half. As to `Cc1ccc(Cn2cnc(-c3ccsc3)c2)cc1`, the half-maximal inhibitory concentration (IC50) in assay [6] was 3.92 µM; in assay [7], 0.36 µM.

Consider `COc1nc2ccc(C)cc2cc1C1CC(=O)N1NC(=O)c1ccc(-n2cccc2)cc1` (stereo not given), for which the MIC amounted to 0.4 mg/L (≈ 0.938 µM) in assay [8], 0.4 mg/L (≈ 0.938 µM) in [9], 12.5 mg/L (≈ 29.3 µM) in assay [10] and 12.5 mg/L (≈ 29.3 µM) in assay [11]. As to `CC(c1ccc(Cl)c(Cl)c1)n1cnc2cc3c(cc21)CCC3` (stereo not given), the minimal inhibitory concentration (MIC) is 6.3 mg/L (≈ 19 µM) in assay [12] and 5.5 mg/L (≈ 16.6 µM) in assay [5]. Moreover, in assay [13], the 50% inhibitory concentration (IC50) amounted to 0.018 µM. Consider `O=c1ccn(Cc2cccc(Br)c2)cc1C(O)c1c(Cl)cccc1Cl` (stereo not given), for which the IC50 in assay [6] turned out to be 0.43 µM.

Turning to `Oc1cc(Cn2cc(C3CC3)nn2)ccc1Oc1ccccc1Cl`, in [14], the MIC was determined as 0.156 mg/L (≈ 0.456 µM).

On to `Cc1c(CN(C)C(=O)/C=C/c2cnc3c(c2)C2(CCC2)C(=O)N3)sc2ccccc12`, for which the MIC in assay [15] and in assay [16] was 0.015 mg/L (≈ 0.0359 µM) throughout. For the molecule `CC(C)CCCC/C=C\CCCCCCCC(=O)O`, the IC50 in [7] came out at 16.3 µM. Regarding `CC(C)=CCc1c(O)cc(-c2cc3ccc(O)cc3o2)cc1O` [MORACIN C], in assay [17], the minimum inhibitory concentration (MIC) came out at 32 mg/L (≈ 103 µM).

For `CCCCCCCCCCCCCCCCc1cc(OC2OC(CO)C(O)C(O)C2O)cc(O)c1C(=O)Oc1cc(C)c(C(=O)O)c(O)c1` (stereo not given), the half-inhibitory concentration (IC50) in [18] was found to be 3.2 µM. Turning to `COc1nc2ccc(Br)cc2cc1/C=N/NC(=O)c1ccc(-n2cccc2)cc1`, it took 1.6 mg/L (≈ 3.56 µM) to inhibit growth in assay [19] (MIC). The term MIC90 denotes the lowest concentration that inhibits either 90% of growth or 90% of the strains tested, depending on the study. Take `Cc1cccc(Cl)c1Cc1c(Cl)n(Cc2cccs2)ccc1=O`: the MIC90 in assay [20] was determined as 2 mg/L (≈ 5.49 µM). Moreover, the concentration for half-maximal inhibition (IC50) amounted to 0.4 µM in assay [21] and 0.35 µM in assay [18]. For `Cc1ccc(Oc2cn(C)c(COc3ccccc3)cc2=O)c(C)c1`, the MIC in [20] was 0.049 mg/L (≈ 0.146 µM). Also, the half-inhibitory concentration (IC50) in [7] is 80 µM. With `Cc1cc(Cl)ccc1Oc1cn(C)c(COc2ccccc2)cc1=O`, in assay [6], the IC50 amounted to 0.11 µM. Turning to `O=C(c1ccc(O)cc1)N1CCc2c(n(Cc3ccc(O)cc3)c3ccccc23)C1`, the MIC in assay [22] amounted to 8 mg/L (≈ 20.1 µM); in [17], 0.5 mg/L (≈ 1.25 µM).

Turning to `CN1C(=O)[C@@H](c2cc(Cl)c(O)c(Cl)c2)NC(=O)[C@@H]2NC(=O)[C@@H](c3cc(Cl)c(O)c(Cl)c3)NC(=O)[C@H](NC(=O)C(=O)c3cc(Cl)c(O)c(Cl)c3)CC3C(=O)Nc4cc(ccc43)-c3cc2cc(c3O)Oc2ccc(cc2)C[C@H]1C(=O)N[C@@H](C(=O)O)c1ccc(O)cc1` (stereo not given in full) [COMPLESTATINS A], the minimal inhibitory concentration (MIC) in assay [23] was determined as 4 mg/L (≈ 2.97 µM). The IC50 in [18] is 0.6 µM.

As to `C=C1C(=O)OC[C@H]1C(/C=C(\C)CC(=O)C=C(C)C)OC(C)=O` (stereo not given in full), the values for the IC50 in assay [24] and in assay [25] were 50 mg/L (≈ 163 µM) and 25 mg/L (≈ 81.6 µM), respectively.

With `Cc1cccc(Cl)c1Cc1c(Cl)n(Cc2cccc(Cl)c2)ccc1=O`, the MIC90 in assay [20] stood at 0.5 mg/L (≈ 1.27 µM). The concentration for half-maximal inhibition (IC50) in assay [21] and in assay [18] was 0.34 µM in each case. With `CC1CC(=O)c2c(cc3c(-c4c(O)cc(O)c5c(O)c6c(cc45)OC(C)CC6=O)c(O)cc(O)c3c2O)O1` (stereo not given) [CEPHALOCHROMIN], the IC50 amounted to 1.8 µM in assay [21] and 1.9 µM in assay [18]. Turning to `Oc1cc(Cl)ccc1Oc1ccccc1`, in assay [1], the MIC is 0.07 mg/L (≈ 0.317 µM).

(Values after ChEMBL document CHEMBL5230110, “FabI (enoyl acyl carrier protein reductase) - A potential broad spectrum therapeutic target and its inhibitors” (Eur J Med Chem, 2020).)
